Source: patent EP4101442A1, “PROCESS FOR PREPARING COMPACTED COENZYME Q10 PARTICLES OF HIGH DENSITY AND IMPROVED FLOWABILITY” (Tradichem Industrial Services, S.L., priority 2021, dated 2022)
Read-outs that look alike come from different tables or passages of the source.

Legend:
Format in all cases: physicochemical
[1] = Bulk density (PT-SV100 Scott Volumeter)
Excerpt: The bulk density, also called apparent density, can be defined as the ratio of the mass to the volume of an untapped powder sample, as "poured". The bulk density is given in grams per millilitre (g/ml) and is typically calculated by "pouring" a known mass of powder into a graduated cylinder.
(§1) Bulk density and tapped density can be measured according to the method disclosed in the European Pharmacopoeia section 2.9.34 (Bulk density and tapped density of powders), for example, the bulk density may be measured using the PT-SV100 Scott Volumeter and the tapped density may be measured using the PT-TD200 Tap Density Tester (Pharma Test Apparatebau AG, Germany).
(§2) The bulk density was measured using a PT-SV100 Scott Volumeter (Pharma Test) and the tapped density was measured using a PT-TD200 Tap Density Tester (Pharma Test).

[2] = Handling observed during manufacture of capsules and tablets
Procedure: All ingredients were added to a Turbula mixer, blended during 15 minutes, and filled into capsules of 00 size.
Furthermore, the powder mixture was easily blended and good homogeneity was easily achieved, without segregation of the ingredients.
All ingredients were mixed in Turbula mixer during about 15 minutes and compressed into tablets.
The powder mixture was easily blended and had good homogeneity, without segregation of the ingredients.

[3] = Aspect (visual appearance) of the powder or granules
Excerpt: It can be observed that the non-compacted material has damp and agglomerated appearance, whereas the compacted product has dry, non-agglomerated, flowable appearance.

[4] = Hausner ratio calculated from bulk and tapped density
Procedure: Hausner ratio is also predictive of powder flow, and is calculated according to the following formula: Hausner ratio = (Density (tapped))/(Density (bulk)) […] [formula]
In this case, a Hausner ratio greater than 1.34 is generally considered to be an indication of poor flowability.
(§3) The relationship between Carr index and/or Hausner ratio with powder flowability is well recognized in the art, for example, as disclosed by M. E. Aulton, in "Powder flow", chapter 12 of the well-recognized reference book in pharmaceutical technology "Aulton's Pharmaceutics. The design and manufacture of medicines", Fifth Edition 2018, M.E. Aulton and K.M.G. Taylor, Editors, Elsevier Ltd, as summarized in the following table: […]

Flow rate = test: Flow rate
Particle size by sieving = settings: compacted product passed through a sieve of 800 micron opening; 100% of the particles
Excerpt: The compactor was connected to a rotor granulator for milling the outcoming compacted plaque. The granulation speed was fixed to 70 r.p.m. and the obtained granulate was passed through a sieve of 800 micron opening.

[5] = Angle of repose from radius and height of the poured cone; settings: tan^-1 (height/radius) of the cone after pouring
Excerpt: The "angle of repose" is another parameter for indirectly quantifying powder flowability. It is the angle at which a material will rest on a stationary heap, specifically, is the angle formed by the heap slope and the horizontal plane. It may be calculated by different methods, commonly, just pouring the material on a flat surface. It also can be calculated as "drained angle of repose", as the angle measured on the internal conical face of a material which has been formed when drained from an orifice of a flat-bottomed container to the horizontal. A dynamic angle of repose can also be used, which is the angle to the horizontal of the free surface formed in a relatively slowly rotating drum (Aulton, op. cit., pg. 197).
In this case, the lower the value of the angle of repose, the higher the flowability of the material. It is generally considered that an angle of repose higher than 45 correlates with poor flowability, whereas an angle of repose under 30 correlates with excellent flowability.
The angle of repose was determined by measuring the radius and the height of the cone formed after pouring the powder, using the formula tan^-1 (height/radius).

[6] = Carr index (compressibility) calculated from bulk and tapped density
Procedure: The Carr index, also called Carr's index or compressibility index, is calculated according to the following formula: Carr index = (Density (tapped)−Density (bulk))/(Density (tapped)) × 100 [formula]
Free flowing powders have smaller values of the Carr index than poor flowing powders. In general, a Carr index greater than 25 is considered to be an indication of poor flowability, and below 15, of good flowability.
as §3

[7] = Tapped density (PT-TD200 Tap Density Tester)
Procedure: On the other hand, tapped density, also called compacted density, of a powder is the ratio of the mass of the powder to the volume occupied by the powder after it has been tapped for a defined period of time. Tapped density is measured by first gently introducing a known sample mass into a graduated cylinder and carefully levelling the powder without compacting it. The cylinder is then mechanically tapped by raising the cylinder and allowing it to drop under its own weight using a suitable mechanical tapped density tester that provides a suitable fixed drop distance and nominal drop rate
as §1, §2

[8] = general description of the starting material, 'for example' value

Row | Compound | Bulk density [1] [g/mL] | Bulk density ([1]; listed as compacted coenzyme Q10) [g/mL] | flowability and adherence during tablet preparation ([2]; 30 mg tablets by direct compression, Turbula mixer about 15 minutes) | flowability and adherence during capsule preparation ([2]; 100 mg hard gelatin capsules, Turbula mixer 15 minutes) | Aspect [3] | Hausner ratio [4] | Flow rate (Flow rate) | particle size (Particle size by sieving) | Angle of repose [5] [°] | Compressibility (Carr Index) [6] [%] | Tapped density [7] [g/mL] | bulk (or apparent) density [1, 8] | Bulk density ([1]; listed as coenzyme Q10 raw material) [g/mL] | tapped (or compacted) density [7, 8]
1 | COC1=C(OC)C(=O)C(C/C=C(\C)CC/C=C(\C)CC/C=C(\C)CC/C=C(\C)CC/C=C(\C)CC/C=C(\C)CC/C=C(\C)CC/C=C(\C)CC/C=C(\C)CCC=C(C)C)=C(C)C1=O [Compacted CoQ10 (Example 1), 2-[(2E,6E,10E,14E,18E,22E,26E,30E,34E)-3,7,11,15,19,23,27,31,35,39-Decamethyltetraconta-2,6,10,14,18,22,26,30,34,38-decaenyl]-5,6-dimethoxy-3-methylcyclohexa-2,5-diene-1,4-dione] | 0.52 | 0.52 | good flowability and did not adhere neither to the walls of vessels and mixers nor to the punches and dies of the tableting machine | good flowability and did not adhere to the walls of vessels and mixers | Orange granules without agglomerates, highly flowable and with dry appearance | 1.10 | Three times faster than for uncompacted CoQ10. The material does not stick to the walls | less than 800 microns | 10 | 8.78 | 0.57 |  |  | 
2 | COC1=C(OC)C(=O)C(C/C=C(\C)CC/C=C(\C)CC/C=C(\C)CC/C=C(\C)CC/C=C(\C)CC/C=C(\C)CC/C=C(\C)CC/C=C(\C)CC/C=C(\C)CCC=C(C)C)=C(C)C1=O [Non-compacted CoQ10 (starting material), 2-[(2E,6E,10E,14E,18E,22E,26E,30E,34E)-3,7,11,15,19,23,27,31,35,39-Decamethyltetraconta-2,6,10,14,18,22,26,30,34,38-decaenyl]-5,6-dimethoxy-3-methylcyclohexa-2,5-diene-1,4-dione] | 0.22 |  |  |  | Orange powder with damp, agglomerated appearance, hygroscopic | 1.55 | Slow, the material sticks to the walls | less than 800 microns | 45 | 35.3 | 0.34 | about 0.22 mg/ml | 0.22 | about 0.34 mg/ml
